According to patent US11260129B2, “Phosphor-containing drug activator, suspension thereof, system containing the suspension, and methods for use” (IMMUNOLIGHT, LLC, priority 2016, dated 2022):

What was measured:
KP-B (sarcoma) = assay: Cell-Titer-Glo Luminescence Cell Viability Assay, UV activated psoralen (FIG. 14A); type: cell-based, murine; details: psoralen 40 μM; UV light 0, 0.25, 0.5, 1.0 J/cm2; N=4
Description: (§1) Other assays were used to provide independent complimentary information on cell viability, e.g. Methylene blue staining and ATP-induced Luminescence imaging (Cell-Titer-Glo® Luminescence Cell Viability Assay). The luminescence imaging permitted investigation of the cytotoxicity of psoralen activated directly with a UV lamp, and in the absence of phosphors and x-ray radiation.
(§2) FIG. 14B presents data on CT2A malignant glioma cells, for a range of treatment parameters including variable x-ray dose (0, 0.67 and 1 Gy). phosphor concentration (50 or 100 μg) and psoralen concentration (8-MOP) at 10, 20 and 40 μM respectively. […] N=4 for each cell line at each UV light condition (0, 0.25, 0.5, 1.0 J/cm2). The psoralen concentration was 40 μM. For FIG. 14B, in CT2A cells, the treatment cytotoxicity increases with X-ray dose (0, 0.67 and 1.00 Gy respectively), concentration of 8-MOP psoralen (10, 20 and 40 μM respectively), and phosphor (50 and 100 μg/ml) respectively (p values shown thereon).

4T1 = assay: as above; type: cell-based, murine; details: psoralen 40 μM; UV light 0, 0.25, 0.5, 1.0 J/cm2; N=4
Description: as §1, §2

[1] = tested on: CT2A (murine malignant glioma); assay: as above; type: cell-based; details: psoralen 40 μM; UV light 0, 0.25, 0.5, 1.0 J/cm2; N=4
Description: as §1, §2

4T1-HER2 cells [2] = assay: Annexin V positivity by flow cytometry (FIGS. 13B, 15, 16); type: cell-based, murine; details: UVADEX alone, with or without x-ray (p 0.90 and 0.09)
Method: In-vitro studies were conducted on plated cells following standard procedures. Cells were maintained in RPMI-1640 supplemented with 10% fetal bovine serum and L-glutamine from GIBCO (Grand Island, N.Y.) growing in a humidified atmosphere of 5% CO2. After incubation, cells were trypsinized and plated evenly onto twelve 12-well plates for 24 hours. About 20 minutes prior to irradiation, the 12 wells of each plate were exposed to the following combinations of additives: […] Each plate had 12 wells with three wells for each of the four treatment arms. The plates were then irradiated with x-rays by placing the plate at a known distance from the x-ray source (50 cm). After irradiation, the cells were incubated on the plate for 48 hours prior to performing flow cytometry. […] (after the 48 hour incubation) and plated onto the 96-well plate, Two primary flow cytometry analyses were used, both determined at 48 hours after treatment. […] The first analysis evaluated was metabolic cell viability (herein referred to as cell viability) calculated from the number of whole cells per well as determined using forward scattering (ESC). […] In FIG. 13A, cell viability after treatment (10 μM 8-MOP equivalent dilution of UVADEX, 50 μg/mL phosphor, 1 Gy of 80 kVp radiation) as determined by Guava flow cytome cytometry is depicted. […]

4T1-HER2 cells [3] = assay: Cell viability by Guava flow cytometry (FIG. 13A); type: cell-based, murine; details: UVADEX alone, 1 Gy 80 kVp; p=0.97
Method: In-vitro studies were conducted on plated cells following standard procedures. Cells were maintained in RPMI-1640 supplemented with 10% fetal bovine serum and L-glutamine from GIBCO (Grand Island, N.Y.) growing in a humidified atmosphere of 5% CO2. After incubation, cells were trypsinized and plated evenly onto twelve 12-well plates for 24 hours. About 20 minutes prior to irradiation, the 12 wells of each plate were exposed to the following combinations of additives: […] Each plate had 12 wells with three wells for each of the four treatment arms. The plates were then irradiated with x-rays by placing the plate at a known distance from the x-ray source (50 cm). After irradiation, the cells were incubated on the plate for 48 hours prior to performing flow cytometry. For compatibility with 96-well Guava Nexin® assay, the remaining cells were again trypsinized. […] Two primary flow cytometry analyses were used, both determined at 48 hours after treatment. […] The first analysis evaluated was metabolic cell viability (herein referred to as cell viability) calculated from the number of whole cells per well as determined using forward scattering (ESC). […] In FIG. 13A, cell viability after treatment (10 μM 8-MOP equivalent dilution of UVADEX, 50 μg/mL phosphor, 1 Gy of 80 kVp radiation) as determined by Guava flow cytome cytometry is depicted. […]

4T1-HER2 cells [4] = assay: Methylene blue staining for cell viability; type: cell-based, murine; details: individual components, 1 Gy of 80 kVp x-rays
Method: A plate having six (6) wells is subjected to treatment. FIG. 11 is a photographic depiction showing of Methylene Blue stain for cell viability post treatment with X-ray, phosphors and UVADEX. One well (#1) is the control. One well (#2) has phosphor coated with EC and DLC (H100). One well (#3) has phosphor coated with EC (but no DLC).
FIGS. 13A-13D illustrates the efficacy of treatment in-vitro in 4T1-HER2 cells, utilizing a regimen of 1/10-diluted UVADEX (with equivalent of 10 uM 8-MOP), 50 μg/mL phosphor 1 Gy of 80 kVp x-rays. […] Two results from two separate plates are shown, each with identical preparations to investigate reproducibility. Three concentrations of phosphor (25, 50, & 100 μg/mL) were tested with the UVADEX concentration fixed at 1/10 dilution (10 uM 8-MOP). […] In FIGS. 13A-13D, the anti-tumor effects of the treatment and its individual components on 4T1-HER2 cells. […] In FIGS. 13C and 13D, cell viability illustrated by methyl blue staining for identical plates each receiving 1 Gy of 80 kVp x-rays is depicted. […]

With `O=c1ccc2cc3ccoc3cc2o1` [psoralen] the viable cells (KP-B (sarcoma)) was “reduce viable cells”, the viable cells (4T1) was “reduce viable cells” and the viable cells [1] was “reduce viable cells”.
With `COc1c2occc2cc2ccc(=O)oc12` [UVADEX, 8-methoxypsoralen] the “apoptotic activity (Annexin V)” value (4T1-HER2 cells [2]) was “negligible apoptotic activity”, the “effect of addition of radiation on cell viability” value (4T1-HER2 cells [3]) was “no significant effect” and the “effect in methyl blue staining (FIGS. 13C, 13D)” value (4T1-HER2 cells [4]) was “little effect”.
